Source: US10363231B2, “Compounds and methods of treating ocular disorders” (CASE WESTERN RESERVE UNIVERSITY, priority 2014, dated 2019)

Legend:
[1] = biological target: T1, RPE65 (Bos taurus, UniProt Q28175); assay: Retinoid isomerase activity assay (11-cis-retinol production in RPE microsomes); type: biochemical, Bovine; conditions: for IC50: primary amine, decline in 11-cis-retinol production in RPE microsomes, read-out: Inhibition of RPE65
T1 construct: from tissue; host or cells: bovine retinal pigment epithelium (RPE) microsomes
T1 sequence (Q28175 whole entry): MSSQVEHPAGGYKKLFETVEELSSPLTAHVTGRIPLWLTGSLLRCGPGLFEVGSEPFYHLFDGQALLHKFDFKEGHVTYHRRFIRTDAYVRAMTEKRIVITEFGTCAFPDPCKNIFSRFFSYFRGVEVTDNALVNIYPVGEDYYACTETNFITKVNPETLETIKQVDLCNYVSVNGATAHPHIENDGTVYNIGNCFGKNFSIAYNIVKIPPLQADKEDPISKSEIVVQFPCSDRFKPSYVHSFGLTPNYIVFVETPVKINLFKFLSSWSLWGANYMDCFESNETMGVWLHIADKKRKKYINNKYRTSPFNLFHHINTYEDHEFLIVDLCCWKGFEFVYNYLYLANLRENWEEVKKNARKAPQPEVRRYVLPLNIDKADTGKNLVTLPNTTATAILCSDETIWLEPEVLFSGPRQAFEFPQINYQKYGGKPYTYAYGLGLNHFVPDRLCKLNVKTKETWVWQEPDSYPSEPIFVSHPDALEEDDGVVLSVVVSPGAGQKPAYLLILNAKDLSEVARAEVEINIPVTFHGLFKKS
Method: (§1) Bovine RPE microsomes were isolated from RPE homogenates by differential centrifugation as previously described. The resulting microsomal precipitate was resuspended in 10 mM Bis-Tris propane/HCl buffer, pH 7.4, to achieve a total protein concentration of […]. Then the mixture was placed in a quartz cuvette and irradiated for 6 min at 4° C. with a ChromatoUVE transilluminator (model TM-15; UVP) to eliminate residual retinoids. After irradiation, DTT was added to the RPE microsomal mixture to achieve a final concentration of 5 mM.
[…] The resulting mixture was pre incubated at room temperature for 5 min. Then 1 μl of all-trans-retinol (in DMF, final concentration 20 μM) was added. The resulting mixture was incubated at 37° C. for 15 min to 2 h. The reaction was quenched by adding 300 μl of methanol, and products were extracted with 300 μl of hexanes. Production of 11-cis-retinol was quantified by normal phase HPLC with 10% (v/v) ethyl acetate in hexanes as the eluent at a flow rate of 1.4 ml·min^−1. Retinoids were detected by monitoring their absorbance at 325 nm and quantified based on a standard curve representing the relationship between the amount of 11-cis-retinol and the area under the corresponding chromatographic peak.
Primary amines of compounds derived from the aldehydes were subsequently tested for their ability to inhibit the RPE65-dependent retinoid isomerization reaction in dose- and time dependent reactions as exemplified by QEB-B-001 (FIG. 3B). Amines were incubated with RPE microsomes in the presence of all-trans-retinol and the 11-cis-retinoid binding protein, CRALBP.
Progress of the enzymatic reaction was monitored by HPLC separation of retinoids and quantification of 11-cis-retinol with a decrease of 11-cis-retinol production reflecting inhibition of RPE65 by a tested amine. […] This moderate inhibition could be enhanced by shortening the polyene chain length (TEA amines) or diminished by introducing an extra positive charge into the tested compounds (QEA-G amines).

[2] = biological target: T2, LRAT (Bos taurus, UniProt Q9BGL2); assay: LRAT activity assay with bovine RPE microsomes (esterification of the corresponding primary alcohols); type: biochemical; conditions: percentage of the corresponding primary alcohol esterified by LRAT in 1 h at 37° C; 10 μM; RPE microsomes
T2 construct: incubated with RPF microsomes that served as a source of LRAT enzymatic activity; from tissue; host or cells: bovine retinal pigment epithelium (RPE) microsomes
T2 sequence (Q9BGL2 1-230): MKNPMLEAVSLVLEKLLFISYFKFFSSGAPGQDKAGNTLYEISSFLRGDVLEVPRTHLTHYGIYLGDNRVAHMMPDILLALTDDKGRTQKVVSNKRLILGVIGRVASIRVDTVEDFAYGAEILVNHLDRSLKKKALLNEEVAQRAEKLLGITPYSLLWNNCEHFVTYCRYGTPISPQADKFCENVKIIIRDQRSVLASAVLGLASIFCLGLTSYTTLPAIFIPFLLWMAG
Method: as §1
Two μl of a synthesized primary alcohol or amine dissolved in DMF (final concentration 10 μM) and 2 μl of 1,2-diheptanoyl-sn-glicerol-3-phosphocholine (water, final concentration 1 mM) were added to 200 μl of 10 mM Bis-Tris propane/HCl buffer, pH 7.4, containing 150 μg of RPE microsomes and 1% (v/w) BSA. The resulting mixture was incubated at 37° C. for 1 h. The reaction was quenched by adding 300 μl of methanol. Most reaction products were extracted with 300 μl of hexanes, except for products from the QEA-C-006 and QEA-G groups which were extracted by adding 300 μl of ethyl acetate and 300 μl of water.
Reaction products were separated and quantified by normal phase HPLC (Agilent Sil 5 μm, 4.6 mm×250 mm) in stepwise gradient of ethyl acetate in hexanes (0-15 min, 10%; 20-30 min, 30%) at a flow rate of 1.4 ml·min^−1.
The properties of retinoid derivatives were examined by two standard enzymatic tests, the […] and retinoid isomerization assays. To identify substrates of LRAT, aldehydes were reduced by sodium borohydrate to their corresponding primary alcohols that then were directly used in the esterification assay (FIG. 2B).
The alcohols were incubated with RPF microsomes that served as a source of LRAT enzymatic activity. Products of the enzymatic reaction as well as the remaining substrates were extracted with organic solvents and analyzed by HPLC. The ratio between a substrate and its esterified form was used to measure enzymatic activity efficiency, based on equivalent UV absorption of the substrate and product at their specific UV maxim wavelengths. Compounds classified as ‘good’ LRAT substrates converted at least 50% of their available alcohol substrates into corresponding esters under these experimental conditions, whereas marginal LRAT substrates were converted at less than 5%. Alcohols with a 5-50% conversion ratio were classified as weak substrates. Among 35 tested compounds, 23 were categorized as good and 9 as weak substrates; 3 compounds were not esterified by LRAT (Table 1 and FIG. 2C). […] Moreover, breaking double bond conjugation along the polyene chain or deletion of a C9 and/or a C13 methyl group also was allowed.

[3] = Analysis of retinoid composition in mouse tissues: amide forms in liver by HPLC; type: in vivo, mice; conditions: oral gavage; for Protection by amide in liver: 4-week-old Abca4−/−Rdh8−/− mice, dark 24 h, liver extracts by HPLC; for amidation in vivo (accumulation of amide forms in mouse liver): liver HPLC
Method: (§2) Abca4^−/−Rdh8^−/− double knockout mice were generated as previously described. Mice were housed in the animal facility at the School of Medicine, Case Western Reserve University, where they were maintained under either complete darkness or in a 12-h light (˜300 lux) and 12-h dark cycle. All tested primary amines were suspended in 100 μl of soybean oil with less than 10% (v/v) DMSO and were administered by oral gavage with a 22-gauge feeding needle. Experimental manipulations in the dark were done under dim red light transmitted through a Kodak No. 1 safelight filter (transmittance >560 nm). All animal procedures and experiments were approved by the Case Western Reserve University Animal Care Committees and conformed to recommendations of the American Veterinary Medical Association Panel on Euthanasia and the Association of Research for Vision and Ophthalmology.
Two mg of primary amines were administered by oral gavage to 4-week-old Abca4^−/−Rdh8^−/− mice, which then were kept in the dark for 24 h. Then mice were euthanized, and their livers were homogenized in 1 ml of 10 mM sodium phosphate buffer, pH 7.4, containing 50% methanol (v/v). The resulting mixture was extracted with 4 ml of hexanes. Extracts were dried in vacuo, and reconstituted in 300 μl of hexanes. 100 μl of this solution was analyzed by HPLC as described above for the LRAT activity assay.
(§3) For practical reasons, only eight of these leading compounds (QEA-B-001-NH2, B-002-NH2, C-001-NH2, C-003-NH2, C006-NH2, E-002-NH2, TEA-B-002-NH2, and C00-2-NH2) along with retinylamine as a control were selected for further testing in Abca4^−/−Rdh8^−/− mice, an animal model for light-induced retinal degeneration (Table 2). Additionally, two novel amines with moderate inhibition of RPE65 (QEA-A-006-NH2 and QEA-B-003-NI 12) and one with strong inhibition (QEA-A-005-NH2) were added to the first test group for comparison. Mice were gavaged with 1 mg of a test compound and then kept in the dark for 24 h prior to being exposed to bright light (˜10,000 lux) for 1 h. Retinal damage was assessed with OCT that measured the thickness of the outer nuclear layer and by quantification of tissue 11-cis retinal levels. An example is shown for imaging results in FIG. 4A and for 11-cis-retinal quantification in FIG. 4B. Additionally, extracts of livers obtained from treated mice were analyzed by HPLC to estimate the amounts of corresponding amides (FIG. 4C).

[4] = system: Abca4^−/−Rdh8^−/− mice; assay: Toxicity in treated Abca4−/−Rdh8−/− mice (Table 2); type: in vivo; conditions: 4-week-old Abca4−/−Rdh8−/− mice, oral gavage
Method: as §2, §3

Row | Structure (SMILES) | IC50 [1] [µM] | LRAT Substrate [2] [%] | Protection by amide in liver [3] | amidation in vivo (accumulation of amide forms in mouse liver) [3] | Toxicity [4] | inhibition of RPE65 [1]
1 | CC1=C(/C=C/C(C)=C/C=C/C(C)=C/CN)C(C)(C)CCC1O (centres unmarked) [QEA-A-002-NH2] | < 10 | 100 |  |  |  | 
2 | CC1=C(/C=C/C(C)=C/C=C/C(C)=C/CN)C(C)(C)CC(O)C1 (centres unmarked) [QEA-A-003-NH2] | < 10 | 100 |  |  |  | 
3 | CC1=C(/C=C/C(C)=C/C=C/C=C/CN)C(C)(C)CCC1 [QEA-A-004-NH2] | < 10 | 100 |  |  |  | 
4 | CC(/C=C/C1=CCCCC1)=C\C=C\C(C)=C\CN [QEA-A-006-NH2] | 10 to 100 | 100 | None | not efficiently amidated | None | 
5 | CC1=C(/C=C/C(=C/C=C/C(C)=C/CN)C(C)(C)C)CCCC1 [QEA-B-002-NH2] | > 200 | 30 | None | not efficiently amidated | None | did not inhibit
6 | CC(C)(C)C(=C\CN)/C=C/C=C(/C=C/C1=CCCCC1)C(C)(C)C [QEA-B-005-NH2] |  | 0 |  |  |  | 
7 | CC(/C=C/C=C(/C=C/c1ccc2c(c1)CCCC2)C(C)(C)C)=C\CN [QEA-C-002-NH2] | > 200 | 15 |  |  |  | 
8 | COc1ccc(C(=C\C=C\C(C)=C\CN)/C=C/c2ccc([N+](=O)[O-])cc2)cc1 [QEA-C-005-NH2] | > 200 | 100 |  |  |  | 
9 | CC(/C=C/C=C1/C=C(c2cccnc2)CCC1)=C\CN [QEA-G-001-NH2] | 10 to 100 | 100 |  |  |  | 
10 | CC1=C(/C=C/C(C)=C/C=C/CN)C(C)(C)CCC1O (centres unmarked) [TEA-A-004-NH2] | < 10 | 90 |  |  |  | 
11 | CC1=C(/C=C/C(=C/C=C/CN)C(C)(C)C)C(C)(C)CCC1 [TEA-B-001-NH2] | > 200 | 100 |  |  |  | 
12 | CC(C)(C)C(=C\C=C\CN)/C=C/c1ccc2c(c1)CCCC2 [TEA-C-001-NH2] |  | 0 |  |  |  | 

More lines, main results first:

Row | IC50 [1] [µM] | LRAT Substrate [2] [%] | Structure (SMILES) | Protection by amide in liver [3] | amidation in vivo (accumulation of amide forms in mouse liver) [3] | Toxicity [4] | inhibition of RPE65 [1]
13 | < 10 | 100 | CC1=C(/C=C/C(C)=C/C=C/C(C)=C/C=C/CN)C(C)(C)CCC1 [PEA-A-001-NH2] |  |  |  | 
14 | < 10 | 90 | CC1=C(/C=C/C(C)=C/C=C/C(C)=C/C=C/CN)C(C)(C)CCC1O (centres unmarked) [PEA-A-002-NH2] |  |  |  | 
15 | < 10 | 90 | CC1=C(/C=C/C(C)=C/C=C/C(C)=C/C=C/CN)C(C)(C)CC(O)C1 (centres unmarked) [PEA-A-003-NH2] |  |  |  | 
16 |  | 0 | CC1=C(/C=C/C(=C/C=C/C(=C/CN)C(C)(C)C)C(C)(C)C)C(C)(C)CCC1 [QEA-B-004-NH2] |  |  |  | 
17 | > 200 | 100 | CC(/C=C/C=C(/C=C/c1ccc(Cl)cc1)c1ccccc1)=C\CN [QEA-C-004-NH2] |  |  |  | 
18 | > 200 | 100 | CC(/C=C/C=C1/C=C(C2=CCCCC2)CCC1)=C\CN [QEA-D-001-NH2] |  |  |  | 
19 | > 200 | 100 | CC(/C=C/C=C1/C=C(C2=COCCC2)CCC1)=C\CN [QEA-D-002-NH2] |  |  |  | 
20 | > 200 | 100 | CC(/C=C/C=C(/C=C/C1=CCCCC1)c1ccccc1)=C\CN [QEA-E-001-NH2] |  |  |  | 
21 | 10 to 100 | 100 | COc1ccc(C(=C\C=C\C(C)=C\CN)/C=C/c2cccnc2)cc1 [QEA-G-002-NH2] |  |  |  | 
22 | < 10 | 100 | CC1=C(/C=C/C(C)=C/C=C/CN)C(C)(C)CCC1 [TEA-A-001-NH2] |  |  |  | 
23 | < 10 | 100 | CC1=C(/C=C/C(C)=C/C=C/CN)C(C)(C)CC=C1 [TEA-A-002-NH2] |  |  |  | 
24 | < 10 | 90 | CC1=C(/C=C/C(C)=C/C=C/CN)C(C)(C)CC(O)C1 (centres unmarked) [TEA-A-003-NH2] |  |  |  | 
25 | > 200 | 20 | CC1=C(/C=C/C(=C/C=C/CN)C(C)(C)C)CCCC1 [TEA-B-003-NH2] |  |  |  | 
26 | > 200 | 30 | NC/C=C/C=C(/C=C/C1=CCCCC1)c1ccccc1 [TEA-B-004-NH2] |  |  |  | 
